IC50 data for 20 molecules are collected here from patent US20230116972A1, “CD38 MODULATORS AND METHODS OF USE THEREOF” (Cytokinetics, Inc., priority 2021, published 2023).

By IC50 is commonly meant the concentration that gives 50% inhibition.

One test deals with T1, mouse CD38 (Mus musculus, UniProt P56528).
T1 sequence (P56528 1-304): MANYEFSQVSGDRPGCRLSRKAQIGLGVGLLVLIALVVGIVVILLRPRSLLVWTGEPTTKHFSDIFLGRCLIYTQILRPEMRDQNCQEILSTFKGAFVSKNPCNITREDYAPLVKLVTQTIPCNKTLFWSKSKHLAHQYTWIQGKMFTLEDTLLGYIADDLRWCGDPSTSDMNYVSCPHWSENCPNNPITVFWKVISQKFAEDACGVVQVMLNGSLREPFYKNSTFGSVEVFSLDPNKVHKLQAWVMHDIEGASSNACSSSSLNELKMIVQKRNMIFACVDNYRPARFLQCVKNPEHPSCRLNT
As to the kind of experiment: mouse recombinant CD38 enzyme assay (hydrolysis of NAD+). The settings on record: read-out: mCD38 BioChem IC50. The format is biochemical. The procedure, abridged:
(§1)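 Cell-free recombinant enzyme, NAD+ substrate, 60 min at RT. Stop/detect: ethanol/ADH plus semicarbazide and a CD38 inhibitor (15 min), then NaOH, then resazurin/diaphorase (15 min). Remaining NAD+ read as resorufin fluorescence, Ex/Em 540/590 nm. Inhibition fitted from dose responses.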

The next test has as its target T2, human CD38 (Homo sapiens, UniProt P28907).
T2 sequence (P28907 1-300): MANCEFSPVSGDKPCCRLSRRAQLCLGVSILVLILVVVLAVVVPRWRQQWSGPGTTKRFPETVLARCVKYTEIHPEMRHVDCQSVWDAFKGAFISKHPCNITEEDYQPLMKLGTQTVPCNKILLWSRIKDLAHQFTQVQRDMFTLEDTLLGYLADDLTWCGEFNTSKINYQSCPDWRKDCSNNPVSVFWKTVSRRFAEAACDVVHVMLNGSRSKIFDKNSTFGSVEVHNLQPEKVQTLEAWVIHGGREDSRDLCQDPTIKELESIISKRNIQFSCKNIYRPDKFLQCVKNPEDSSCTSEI
Description: human recombinant CD38 enzyme assay (hydrolysis of NAD+). Type of test: biochemical. The conditions noted are these: human recombinant CD38, 0.4 nM enzyme, 62.5 μM NAD+; read-out: hCD38 BioChem IC50. Put shortly:
as §1

The target of test [1] is T3, endogenous CD38 in HL60 cells (Homo sapiens, UniProt P28907).
T3 construct: endogenous in cells; host or cells: HL60 (leukemic cells, treated with all-trans retinoic acid)
T3 sequence (P28907 1-300): T2 sequence (P28907 1-300)
Description: cellular CD38 assay in HL60 cells (cellular NAD levels). The format is cell-based. The settings on record: all-trans retinoic acid, 24 hours, read-out: hCD38 HL60 ATRA NAD Cell Diaphorase IC50. The procedure, abridged:
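HL60 cells (20000/well) were treated with compound in DMSO for 24 h. Cellular NAD was then measured by an enzymatic cycling mix (alcohol dehydrogenase, diaphorase, 40 uM resazurin, 10 uM FMN, 3% ethanol, Triton X-100, pH 8.4).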

SMILES strings stand for the structures.

For the molecule `Cn1cncc1-c1nc(C(=O)N[C@H]2C[C@H](Oc3ccccc3)C2)cc(C2CCOCC2)n1` [Compound 291, 2-(1-methyl-1H-imidazol-5-yl)-N-((1r,3r)-3-phenoxycyclobutyl)-6-(tetrahydro-2H-pyran-4-yl)pyrimidine-4-carboxamide], the IC50 at mouse CD38 was 3.4 nM; on human CD38, 4.1 nM; in test [1], 2620 nM.

As to `Cn1cncc1-c1nc(C(=O)NC23CC(C(C)(C)O)(C2)C3)cc(C2CCOCC2)n1` [Compound 292, N-(3-(2-hydroxypropan-2-yl)bicyclo[1.1.1]pentan-1-yl)-2-(1-methyl-1H-imidazol-5-yl)-6-(tetrahydro-2H-pyran-4-yl)pyrimidine-4-carboxamide], the values for the IC50 (on mouse CD38; on human CD38; in test [1]) were 7.1 nM, 21.4 nM and 6610 nM, respectively.

Take `O=C(N[C@H]1CC[C@H](OC(F)F)CC1)c1nccc(-n2ccnc2)n1` [Compound 293, N-((1r,4r)-4-(difluoromethoxy)cyclohexyl)-4-(1H-imidazol-1-yl)pyrimidine-2-carboxamide]: the figures for the IC50 (on mouse CD38; at human CD38; in test [1]) were 36.2 nM, 58.5 nM and 2830 nM, respectively.

As for `Cn1cncc1-c1ccnc(C(=O)NC23CC(C(C)(C)O)(C2)C3)n1` [Compound 294, N-(3-(2-hydroxypropan-2-yl)bicyclo[1.1.1]pentan-1-yl)-4-(1-methyl-1H-imidazol-5-yl)pyrimidine-2-carboxamide], the IC50 on mouse CD38 was found to be 176 nM; at human CD38, 251 nM; in test [1] it was 4480 nM.

As to `Cc1ncc(-c2cncn2C)nc1C(=O)Nc1ccc(C(F)(F)F)nc1` [Compound 296, 3-methyl-6-(1-methyl-1H-imidazol-5-yl)-N-(6-(trifluoromethyl)pyridin-3-yl)pyrazine-2-carboxamide], the concentration for half-maximal inhibition (IC50) on mouse CD38 was 9.9 nM; at human CD38 it was 8.7 nM; in test [1], 1140 nM.

As to `CCO[C@H]1C[C@H](NC(=O)c2nccc(-c3cncn3C)n2)C1` [Compound 299, N-((1r,3r)-3-ethoxycyclobutyl)-4-(1-methyl-1H-imidazol-5-yl)pyrimidine-2-carboxamide], the results for the IC50 (on mouse CD38; at human CD38; in test [1]) were 74.8 nM, 288 nM and 4100 nM, respectively.

With `Cn1cncc1-c1nc(C(=O)N[C@H]2CC[C@H](NCC(F)(F)F)CC2)cc(C2CCOCC2)n1` [Compound 300, 2-(1-methyl-1H-imidazol-5-yl)-6-(tetrahydro-2H-pyran-4-yl)-N-((1r,4r)-4-((2,2,2-trifluoroethyl)amino)cyclohexyl) pyrimidine-4-carboxamide], the 50% inhibitory concentration (IC50) at mouse CD38 is 1.6 nM; on human CD38, 15.7 nM; in test [1], 2120 nM.

As to `COc1ncc(-c2cncn2C)nc1C(=O)N[C@H]1CC[C@H](OC)CC1` [Compound 303, 3-methoxy-N-((1r,4r)-4-methoxycyclohexyl)-6-(1-methyl-1H-imidazol-5-yl)pyrazine-2-carboxamide], the values for the concentration for half-maximal inhibition (IC50) (at mouse CD38; at human CD38; in test [1]) were 62.4 nM, 296 nM and 10400 nM, respectively.

On to `COCCOc1cc(C(=O)Nc2ccc(C(F)F)nc2)nc(-c2cncn2C)n1` [Compound 307, N-(6-(difluoromethyl)pyridin-3-yl)-6-(2-methoxyethoxy)-2-(1-methyl-1H-imidazol-5-yl)pyrimidine-4-carboxamide], for which the IC50 at mouse CD38 was 1 nM; at human CD38, 1.5 nM; in test [1], 254 nM.

As to `O=C(N[C@H]1CC[C@H](OC(F)(F)F)CC1)c1nccc(-n2ccnc2)n1` [Compound 308, 4-(1H-imidazol-1-yl)-N-((1r,4r)-4-(trifluoromethoxy)cyclohexyl)pyrimidine-2-carboxamide], the 50% inhibitory concentration (IC50) worked out at 94.3 nM on mouse CD38, 125 nM at human CD38 and 6270 nM in test [1].

For the molecule `Cn1cncc1-c1nc(C(=O)Nc2ccc(C(F)(F)F)nc2)cc(C2(C)COC2)n1` [Compound 309, 2-(1-methyl-1H-imidazol-5-yl)-6-(3-methyloxetan-3-yl)-N-(6-(trifluoromethyl)pyridin-3-yl)pyrimidine-4-carboxamide], the 50% inhibitory concentration (IC50) was determined as 1.3 nM on mouse CD38, 4.2 nM at human CD38 and 933 nM in test [1].

Turning to `Cn1cncc1-c1nc(C(=O)N[C@H]2CC[C@H](OC(F)F)CC2)cc(C2(C)COC2)n1` [Compound 311, N-((1r,4r)-4-(difluoromethoxy)cyclohexyl)-2-(1-methyl-1H-imidazol-5-yl)-6-(3-methyloxetan-3-yl)pyrimidine-4-carboxamide], the IC50 worked out at 3.8 nM on mouse CD38, 13.5 nM on human CD38 and 2150 nM in test [1].

In the case of `Cn1cncc1-c1ccnc(C(=O)N[C@H]2CC[C@H](OCc3ccccc3)CC2)n1` [Compound 312, N-((1r,4r)-4-(benzyloxy)cyclohexyl)-4-(1-methyl-1H-imidazol-5-yl)pyrimidine-2-carboxamide], the 50% inhibitory concentration (IC50) at mouse CD38 is 10.2 nM; on human CD38 it was 26.5 nM; in test [1], 2790 nM.

On to `Cn1cncc1-c1cnc(N)c(C(=O)Nc2ccc(C(F)(F)F)nc2)n1` [Compound 314, 3-amino-6-(1-methyl-1H-imidazol-5-yl)-N-(6-(trifluoromethyl)pyridin-3-yl)pyrazine-2-carboxamide], for which the figures for the 50% inhibitory concentration (IC50) (on mouse CD38; at human CD38; in test [1]) were 7.5 nM, 8.9 nM and 1370 nM, respectively.

As to `CO[C@H]1CC[C@H](NC(=O)c2cc([C@H]3CC[C@@H](OC)CC3)nc(-c3cncn3C)n2)CC1` [Compound 315, N-((1r,4R)-4-methoxycyclohexyl)-6-((1s,4S)-4-methoxycyclohexyl)-2-(1-methyl-1H-imidazol-5-yl)pyrimidine-4-carboxamide], the half-maximal inhibitory concentration (IC50) is 1.8 nM on mouse CD38, 13.7 nM on human CD38 and 2280 nM in test [1].

Turning to `CO[C@H]1CC[C@H](NC(=O)c2cc([C@H]3CC[C@H](OC)CC3)nc(-c3cncn3C)n2)CC1` [Compound 316, N,6-bis((1r,4R)-4-methoxycyclohexyl)-2-(1-methyl-1H-imidazol-5-yl)pyrimidine-4-carboxamide], the values for the IC50 (at mouse CD38; on human CD38; in test [1]) were 2 nM, 15 nM and 1470 nM, respectively.

`CO[C@H]1CC[C@H](NC(=O)c2nc(-c3cncn3C)cnc2N)CC1` [Compound 318, 3-amino-N-((1r,4r)-4-methoxycyclohexyl)-6-(1-methyl-1H-imidazol-5-yl)pyrazine-2-carboxamide]: the IC50 at mouse CD38 was 13.4 nM; at human CD38, 18.5 nM; in test [1] it was 1920 nM.

On to `Cn1cncc1-c1ccnc(C(=O)Nc2ccc(OC3CC(F)(F)C3)nc2)n1` [Compound 319], for which the IC50 on mouse CD38 came out at 6 nM; on human CD38, 3.6 nM; in test [1], 964 nM.

For `CC(C)(O)c1ccc(NC(=O)c2nccc(-n3ccnc3)n2)cc1` [Compound 357, N-(4-(2-hydroxypropan-2-yl)phenyl)-4-(1H-imidazol-1-yl)pyrimidine-2-carboxamide], the half-maximal inhibitory concentration (IC50) came to 10.2 nM at mouse CD38, 5.7 nM on human CD38 and 940 nM in test [1].

Consider `Cn1cncc1-c1ccnc(C(=O)Nc2ccc(C(C)(C)O)cc2)n1` [Compound 358, N-(4-(2-hydroxypropan-2-yl)phenyl)-4-(1-methyl-1H-imidazol-5-yl)pyrimidine-2-carboxamide], for which the values for the concentration for half-maximal inhibition (IC50) (on mouse CD38; at human CD38; in test [1]) were 5.8 nM, 4.3 nM and 1010 nM, respectively.
